Measurements from ChEMBL document CHEMBL3259791, “Discovery of (E)-3-((styrylsulfonyl)methyl)pyridine and (E)-2-((styrylsulfonyl)methyl)pyridine derivatives as anticancer agents: synthesis, structure-activity relationships, and biological activities” (J Med Chem, 2014).
Blank lines part the entries; values can stand above or below the molecule they belong to. Calls of active or inactive are those of the source. The rule behind the calls is not given here.

Assays:
[1] = test system: HCT-116; experiment: Antiproliferative activity against human HCT116 cells assessed as cell growth inhibition after 72 hrs by MTT assay; format: functional; settings: HCT-116, 72 h
[2] = test system: DU-145; experiment: Ratio of ON01910 IC50 to compound IC50 for AR negative human DU145 cells; format: functional
[3] = Apparent permeability across apical to basolateral side in human Caco2 cells; format: ADME, cell-based; settings: Caco-2
[4] = Elimination half life in mouse at 40 mg/kg, po after 24 hrs; format: ADME, organism-based; set-up: dose 40 mg/kg, route oral; settings: in vivo, read-out: beta t1/2 (converted)
[5] = test system: HCT-116; experiment: Selectivity ratio of IC50 for human WI38 cells to IC50 for human HCT116 cells; format: functional
[6] = Octanol-buffer partition coefficient, log D of the compound at pH 7.4 by shake-flask method; format: physicochemical
[7] = test system: A2780; experiment: Antiproliferative activity against human A2780 cells assessed as cell growth inhibition after 72 hrs by MTT assay; format: functional; settings: A2780, 72 h
[8] = Half life in rat liver microsomes; format: ADME
[9] = Oral bioavailability (0 to t) in mouse at 40 mg/kg after 24 hrs; format: ADME, organism-based; settings: in vivo
[10] = test system: MCF7; experiment: Antiproliferative activity against human MCF7 cells assessed as cell growth inhibition after 72 hrs by MTT assay; format: functional; settings: MCF7, 72 h
[11] = Oral bioavailability (0 to infinity) in mouse at 40 mg/kg after 24 hrs; format: ADME, organism-based; settings: in vivo
[12] = Dissociation constant, pKa of the compound by pH-metric method; format: physicochemical
[13] = Antiproliferative activity against human PANC1 cells assessed as cell growth inhibition after 72 hrs by MTT assay; format: functional; settings: PANC-1, 72 h
[14] = test system: LNCaP; experiment: Antiproliferative activity against AR positive human LNCAP cells assessed as cell growth inhibition after 72 hrs by MTT assay; format: functional
[15] = test system: DU-145; experiment: Antiproliferative activity against AR negative human DU145 cells assessed as cell growth inhibition after 72 hrs by MTT assay; format: functional; settings: DU-145, 72 h
[16] = test system: MCF7; experiment: Ratio of ON01910 IC50 to compound IC50 for ER positive human MCF7 cells; format: functional
[17] = test system: WI-38; experiment: Selectivity ratio of IC50 for human WI38 cells to IC50 for ER negative human MDA-MB-231 cells; format: functional
[18] = test system: MDA-MB-231; experiment: Ratio of ON01910 IC50 to compound IC50 for ER negative human MDA-MB-231 cells; format: functional
[19] = Apparent permeability across basolateral to apical side in human Caco2 cells; format: ADME, cell-based; settings: Caco-2
[20] = test system: LNCaP; experiment: Selectivity ratio of IC50 for human WI38 cells to IC50 for AR positive human LNCAP cells; format: functional
[21] = test system: PANC-1; experiment: Ratio of ON01910 IC50 to compound IC50 for human PANC1 cells; format: functional
[22] = AUC (0 to t) in mouse at 40 mg/kg, po after 24 hrs; format: ADME, organism-based; set-up: time < 24 hr, dose 40 mg/kg, route oral; settings: plasma
[23] = test system: A2780; experiment: Selectivity ratio of IC50 for human WI38 cells to IC50 for human A2780 cells; format: functional
[24] = test system: HeLa; experiment: Antiproliferative activity against human HeLa cells assessed as cell growth inhibition after 72 hrs by MTT assay; format: functional
[25] = test system: WI-38; experiment: Antiproliferative activity against human WI38 cells assessed as cell growth inhibition after 72 hrs by MTT assay; format: functional; settings: WI-38, 72 h
[26] = test system: LNCaP; experiment: Ratio of ON01910 IC50 to compound IC50 for AR positive human LNCAP cells; format: functional
[27] = target: Voltage-gated inwardly rectifying potassium channel KCNH2 (Homo sapiens, UniProt Q12809); experiment: Inhibition of human ERG expressed in CHO cells
Sequence of Voltage-gated inwardly rectifying potassium channel KCNH2 (Q12809 whole entry): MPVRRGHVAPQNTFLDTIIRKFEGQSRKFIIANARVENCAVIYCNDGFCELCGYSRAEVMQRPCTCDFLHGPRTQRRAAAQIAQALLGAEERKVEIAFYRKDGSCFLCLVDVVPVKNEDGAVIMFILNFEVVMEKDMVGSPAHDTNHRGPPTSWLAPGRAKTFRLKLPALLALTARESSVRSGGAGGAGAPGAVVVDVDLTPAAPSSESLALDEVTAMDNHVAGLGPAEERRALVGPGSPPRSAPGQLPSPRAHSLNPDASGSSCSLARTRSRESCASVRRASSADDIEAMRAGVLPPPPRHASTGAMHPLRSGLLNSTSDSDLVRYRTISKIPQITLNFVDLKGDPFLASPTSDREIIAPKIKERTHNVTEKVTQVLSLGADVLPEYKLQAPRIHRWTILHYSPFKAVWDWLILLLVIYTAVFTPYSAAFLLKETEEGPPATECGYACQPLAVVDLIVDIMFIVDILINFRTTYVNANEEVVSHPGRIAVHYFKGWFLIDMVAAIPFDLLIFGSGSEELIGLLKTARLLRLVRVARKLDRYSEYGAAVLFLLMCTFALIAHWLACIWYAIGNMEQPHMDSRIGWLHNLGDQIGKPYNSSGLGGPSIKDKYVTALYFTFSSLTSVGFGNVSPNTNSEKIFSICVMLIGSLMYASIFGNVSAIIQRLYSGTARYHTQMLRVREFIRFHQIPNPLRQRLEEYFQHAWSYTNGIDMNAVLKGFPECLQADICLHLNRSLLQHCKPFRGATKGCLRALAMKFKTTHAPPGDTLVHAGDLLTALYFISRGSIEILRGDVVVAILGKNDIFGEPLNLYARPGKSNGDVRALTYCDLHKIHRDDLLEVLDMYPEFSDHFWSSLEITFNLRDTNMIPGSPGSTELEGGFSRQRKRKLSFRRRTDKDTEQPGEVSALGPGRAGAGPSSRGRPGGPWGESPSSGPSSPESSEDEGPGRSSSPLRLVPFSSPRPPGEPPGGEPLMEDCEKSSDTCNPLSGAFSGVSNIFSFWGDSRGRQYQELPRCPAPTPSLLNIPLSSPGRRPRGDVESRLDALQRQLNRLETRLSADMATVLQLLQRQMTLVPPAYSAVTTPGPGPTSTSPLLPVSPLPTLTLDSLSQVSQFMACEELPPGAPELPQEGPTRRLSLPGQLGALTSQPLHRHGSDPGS

[28] = test system: MCF7; experiment: Selectivity ratio of IC50 for human WI38 cells to IC50 for ER positive human MCF7 cells; format: functional
[29] = test system: DU-145; experiment: Selectivity ratio of IC50 for human WI38 cells to IC50 for AR negative human DU145 cells; format: functional
[30] = Cmax in mouse at 40 mg/kg, po after 24 hrs; format: ADME, organism-based; set-up: dose 40 mg/kg, route oral; settings: in vivo
[31] = test system: HCT-116; experiment: Ratio of ON01910 IC50 to compound IC50 for human HCT116 cells; format: functional
[32] = test system: MDA-MB-231; experiment: Antiproliferative activity against ER negative human MDA-MB-231 cells assessed as cell growth inhibition after 72 hrs by MTT assay; format: functional; settings: MDA-MB-231, 72 h
[33] = test system: MCF7; experiment: Antiproliferative activity against ER positive human MCF7 cells assessed as cell growth inhibition after 72 hrs by MTT assay; format: functional; settings: MCF7, 72 h
[34] = test system: HeLa; experiment: Ratio of ON01910 IC50 to compound IC50 for human HeLa cells; format: functional
[35] = Aqueous solubility of the compound by turbidimetric solubility assay; format: physicochemical; settings: buffer
[36] = test system: PANC-1; experiment: Selectivity ratio of IC50 for human WI38 cells to IC50 for human PANC1 cells; format: functional
[37] = test system: A2780; experiment: Ratio of ON01910 IC50 to compound IC50 for human A2780 cells; format: functional
[38] = test system: HeLa; experiment: Selectivity ratio of IC50 for human WI38 cells to IC50 for human HeLa cells; format: functional
[39] = test system: WI-38; experiment: Induction of apoptosis in human WI38 cells assessed as caspase-3/7 activation up to 1 uM after 24 hrs by using Apo-ONE homogeneous caspase-3/7 kit; format: functional, cell-based
[40] = test system: A2780; experiment: Reduction in CDC25C level in human A2780 cells at […] after 24 hrs by Western blot analysis; format: functional, cell-based
[41] = test system: A2780; experiment: Induction of apoptosis in human A2780 cells assessed as caspase-3/7 activation at […] after 24 hrs by using Apo-ONE homogeneous caspase-3/7 kit; format: functional, cell-based
[42] = test system: A2780; experiment: Reduction in Mcl1 level in human A2780 cells at […] after 24 hrs by Western blot analysis; format: functional, cell-based
[43] = Oral bioavailability (0 to t) in mouse at 10 mg/kg after 24 hrs; format: ADME, organism-based; settings: in vivo
[44] = AUC (0 to t) in mouse at 10 mg/kg, po after 24 hrs; format: ADME, organism-based; set-up: time < 24 hr, dose 10 mg/kg, route oral; settings: plasma
[45] = Elimination half life in mouse at 10 mg/kg, po after 24 hrs; format: ADME, organism-based; set-up: dose 10 mg/kg, route oral; settings: in vivo, read-out: beta t1/2 (converted)
[46] = Cmax in mouse at 10 mg/kg, po after 24 hrs; format: ADME, organism-based; set-up: dose 10 mg/kg, route oral; settings: in vivo
[47] = test system: HCT-116; experiment: Antitumor activity against human HCT116 cells xenografted in mouse assessed as delay in tumor growth at 100 mg/kg, ip daily 5 days/week for 2 weeks; format: functional, organism-based; set-up: dose 100 mg/kg
[48] = test system: HCT-116; experiment: Antitumor activity against human HCT116 cells xenografted in mouse assessed as delay in tumor growth at 33.3 mg/kg, ip daily 5 days/week for 2 weeks; format: functional, organism-based; set-up: dose 33.3 mg/kg

SMILES: COc1cc(OC)c(/C=C/S(=O)(=O)Cc2cnc(OC)c(N)c2)c(OC)c1
GI50 [1]: 0.005 µM | Ratio IC50 [2]: 10 | Papp A→B [3]: 42.3 ×10⁻⁶ cm/s | half-life [4]: 2.58 days | Ratio IC50 [5]: >1400 | logD [6]: 2.34 | GI50 [7]: 5 nM | half-life [8]: 20 min | bioavailability [9]: 28% | GI50 [10]: 0.006 µM | bioavailability [11]: 100% | pKa [12]: 2.39 | GI50 [13]: < 1 nM | GI50 [14]: 3 nM | GI50 [15]: 5 nM | Ratio IC50 [16]: 10 | Ratio IC50 [17]: >1400 | Ratio IC50 [18]: 10 | Papp B→A [19]: 21.5 ×10⁻⁶ cm/s | Ratio IC50 [20]: >1400 | Ratio IC50 [21]: 10 | AUC(0-t) at 24 h [22]: 24.6 µM·h | Ratio IC50 [23]: >1400 | GI50 [24]: 4 nM | GI50 [25]: > 10 µM | Ratio IC50 [26]: 10 | IC50 [27]: > 25 µM | Ratio IC50 [28]: >1400 | Ratio IC50 [29]: >1400 | Cmax [30]: 3000 nM | Ratio IC50 [31]: 10 | GI50 [32]: 6 nM | GI50 [33]: 6 nM | Ratio IC50 [34]: 10 | solubility kinetic [35]: > 100 µM | Ratio IC50 [36]: >1400 | Ratio IC50 [37]: 10 | Ratio IC50 [38]: >1400

SMILES: COc1cc(OC)c(/C=C/S(=O)(=O)Cc2ccc(OC)c(NCC(=O)O)c2)c(OC)c1
Activity [39]: inactive | inhibition [40]: Active | Activity [41]: Active | inhibition [42]: Active

SMILES: COc1cc(OC)c(/C=C/S(=O)(=O)Cc2cnc(OC)c(NCC(N)=O)c2)c(OC)c1
GI50 [1]: 6.59 µM | GI50 [10]: > 10 µM

SMILES: CCCS(=O)(=O)Nc1cc(CS(=O)(=O)/C=C/c2c(OC)cc(OC)cc2OC)cnc1OC
GI50 [1]: > 10 µM | GI50 [7]: > 10000 nM | GI50 [10]: > 10 µM

SMILES: COc1cc(OC)c(/C=C/S(=O)(=O)Cc2cnc(OC)c(NC(C)=O)c2)c(OC)c1
GI50 [1]: 8.22 µM | GI50 [7]: 7100 nM | GI50 [10]: 7.5 µM

SMILES: COc1cc(OC)c(C(C(c2cnc(OC)c([N+](=O)[O-])c2)S(C)(=O)=O)N2CCCCC2)c(OC)c1 (stereo not given)
GI50 [1]: 4.4 µM | GI50 [10]: 6.41 µM

SMILES: COc1cc(OC)c(/C=C/S(=O)(=O)Cc2cnc(OC)c([N+](=O)[O-])c2)c(OC)c1
GI50 [1]: 7.43 µM | GI50 [7]: 7210 nM | GI50 [10]: 5.22 µM

SMILES: CCN(C(C)=O)c1cc(CS(=O)(=O)/C=C/c2c(OC)cc(OC)cc2OC)cnc1OC
GI50 [1]: > 10 µM | GI50 [10]: > 10 µM

Further lines, with some results ahead:

GI50 [1]: 0.517 µM | GI50 [7]: 409 nM | GI50 [10]: 0.94 µM
SMILES: CCOC(=O)CNc1cc(CS(=O)(=O)/C=C/c2c(OC)cc(OC)cc2OC)cnc1OC

bioavailability [43]: 9% | AUC(0-t) at 24 h [44]: 1 µM·h | half-life [45]: 156 min | Cmax [46]: 0.4 µM
SMILES: COc1cc(OC)c(/C=C/S(=O)(=O)Cc2ccc(OC)c(NCC(=O)[O-])c2)c(OC)c1.[Na+] [RIGOSERTIB SODIUM]

GI50 [1]: 0.32 µM | GI50 [7]: 500 nM | GI50 [10]: 0.66 µM
SMILES: COc1cc(OC)c(/C=C/S(=O)(=O)Cc2ccc(OC)c(NC(C)=O)n2)c(OC)c1

GI50 [1]: > 10 µM | GI50 [7]: > 10000 nM | GI50 [10]: 9.97 µM
SMILES: COc1cc(OC)c(/C=C/S(=O)(=O)Cc2ccc(OC)c([N+](=O)[O-])n2)c(OC)c1

GI50 [1]: 5.45 µM | GI50 [7]: 6910 nM | GI50 [10]: 5.71 µM
SMILES: CCOC(=O)CNc1nc(CS(=O)(=O)/C=C/c2c(OC)cc(OC)cc2OC)ccc1OC

GI50 [1]: 0.57 µM | Papp A→B [3]: 8.9 ×10⁻⁶ cm/s | AUC(0-t) at 24 h [44]: 7.2 µM·h | logD [6]: 1.52 | GI50 [7]: 317 nM | half-life [8]: 70 min | GI50 [10]: 0.78 µM | pKa [12]: 7.66 | Papp B→A [19]: 47.1 ×10⁻⁶ cm/s | GI50 [24]: 682 nM | half-life [45]: 180 min | GI50 [32]: 671 nM | GI50 [33]: 780 nM | solubility kinetic [35]: > 100 µM | Cmax [46]: 6.3 µM
SMILES: COc1cc(OC)c(/C=C/S(=O)(=O)Cc2cnc(OC)c(NS(C)(=O)=O)c2)c(OC)c1
Activity [47]: Active | Activity [48]: Active | GI50 [13]: 875 nM | GI50 [25]: > 10 µM

GI50 [1]: > 10 µM | GI50 [7]: > 10000 nM | GI50 [10]: > 10 µM
SMILES: CCS(=O)(=O)Nc1cc(CS(=O)(=O)/C=C/c2c(OC)cc(OC)cc2OC)cnc1OC

GI50 [1]: 0.329 µM | GI50 [7]: 253 nM | GI50 [10]: 0.545 µM
SMILES: COc1cc(OC)c(/C=C/S(=O)(=O)Cc2ccc(OC)c(NCC(=O)O)n2)c(OC)c1

GI50 [1]: 0.41 µM | GI50 [7]: 376 nM
SMILES: COc1cc(OC)c(/C=C/S(=O)(=O)Cc2cnc(OC)c(NCC(=O)O)c2)c(OC)c1
